# Laboratory results taken from patent publication US10624947B2, “Bactericidal peptides and uses thereof” (INDIANA UNIVERSITY RESEARCH AND TECHNOLOGY CORPORATION, priority 2016, dated 2020).
# Like-named read-outs stand apart in the source and are kept apart here. Ends that are not written are not given here.
# Assays:
# Klebsiella pneumoniae = conditions: Table 5
# Protocol: (§1) Antimicrobial activity was determined using the broth microdilution method based on the general recommendation of the Clinical and Laboratory Standards Institute. Bacteria were grown in Mueller-Hinton broth at 37° C. until OD625 reached 0.06, and then bacteria were further diluted into 1:20 for later use. […] 10 microliter (μL) of diluted bacteria was mixed with 90 μL of peptides at varying concentrations followed by incubation at 37° C. for 16-18 hours. The MIC is the lowest peptide concentration at which visible growth was inhibited. The MIC value was determined at least twice in independent experiments and typically in 3-4 assays.
# [1] = system: human red blood cells (hRBCs); experiment: Hemolytic activity; assay type: cell-based
# Protocol: The amount of hemoglobin released was measured by the absorbance at 435 nm after a 60-minute incubation with the antimicrobial peptide. The percentage of hRBC lysis was normalized to the amount hemoglobin released by the suspension of the hRBCs in deionized water. The background amount of hRBC lysis was determined by adding phosphate buffered saline (PBS) at the same volume as 8 μM of the peptide to the hRBC for 1 h.
# The hemolytic activities of peptides were determined using human red blood cells (hRBCs) (Innovative Research, Inc., cat. # IPLA-WB3-18103). The hRBCs were washed three times with PBS and then resuspended in PBS. The hRBCs solution was mixed with serial dilutions of the peptides in PBS buffer. The reaction mixtures were incubated for 45 min at 37° C. After centrifugation at 94×g for 10 min, the intact hRBCs were pelleted and the hemoglobin released from hRBCs was monitored by measuring the absorbance of the supernatant at 415 nm. The background level of absorbance was measured in sampled incubated with only PBS buffer. 100% hemolysis was determined in sampled incubated with water. The percentage of hemolysis was calculated according to the following equation. Percentage of hemolysis=[(Asample−Ablank)/Awater]*100%
# Mammalian cells are thought to be less susceptible to cathelicidin peptides in part because the composition of their membrane will be less likely to interact with the peptides. To address this directly, human red blood cells (hRBCs) were tested for lysis after a 45-minute incubation with the peptides. The total lysis of hRBCs was determined by adding water to the cells. The amount of lysis during handling was determined by the addition of phosphate buffered saline at the same volume as that of the peptides.
# Cultured human cells = experiment: MTT cytotoxicity assay; assay type: cell-based
# Protocol for Escherichia coli: as §1
substance,measurement,setting,value
Colistin sulfate [reference compound],MIC,"Escherichia coli; Table 5, Escherichia coli ATCC25922, antibiotic resistance none",1 µM
same,MIC,"Klebsiella pneumoniae; Klebsiella pneumonia 27, Carbapenem resistant",>32 µM
same,MIC,"Klebsiella pneumoniae; Klebsiella pneumonia 49, Carbapenem resistant",4 µM
same,MIC,"Klebsiella pneumoniae; Klebsiella pneumonia 83, Carbapenem resistant",2 µM
same,MIC,"Klebsiella pneumoniae; Klebsiella pneumonia 84, Carbapenem resistant",2 µM
same,MIC,"Klebsiella pneumoniae; Klebsiella pneumonia 88, Carbapenem resistant (NDM1+)",16 µM
same,MIC,"Klebsiella pneumoniae; Klebsiella pneumonia 262, Carbapenem resistant (NDM1+)",16 µM
GRAKRLRKKLKKLAKKLSPVIPLLHLG [BMAP-27C],Minimal inhibitory concentration,Escherichia coli,32 µg/mL
same,Minimal inhibitory concentration,Escherichia coli; E. coli ATCC 35218,4 µg/mL
same,RBC lysis,[1],decreased RBC lysis compared to the control H2O
same,"Cytotoxicity, MTT assay",Cultured human cells,no increased cytotoxicity compared to the controls
"GRFKRFRKKFKKLFKKLSPVIPLLHLG [BMAP-27, reference compound]",Minimal inhibitory concentration,Escherichia coli,8 µg/mL
same,RBC lysis,[1],decreased RBC lysis compared to the control H2O
same,"Cytotoxicity, MTT assay",Cultured human cells,no increased cytotoxicity compared to the controls
GRFKRLRKKFKKLFKKLSPVIPLLHLG [BMAP-27A],Minimal inhibitory concentration,Escherichia coli,8 µg/mL
same,Minimal inhibitory concentration,Escherichia coli; E. coli ATCC 25922,2 µg/mL
same,Minimal inhibitory concentration,Escherichia coli; E. coli ATCC 35218,2 µg/mL
same,Minimal inhibitory concentration,Escherichia coli; E. coli IU0342,2 µg/mL
same,RBC lysis,[1],decreased RBC lysis compared to the control H2O
same,"Cytotoxicity, MTT assay",Cultured human cells,no increased cytotoxicity compared to the controls
